Measured values taken from US20150315218A1, “SALTS OF PRODRUGS OF PIPERAZINE AND SUBSTITUTED PIPERIDINE ANTIVIRAL AGENTS” (Bristol-Myers Squibb Company, priority 2004, published 2015).
Counter-ions that a name gives are not always drawn. Like-named read-outs stand apart in the source and are kept apart here.

Assays:
[1] = Single dose study of Compound IVa in healthy human volunteers (capsule/solution, fasted/fed; first-in-human); type: in vivo; settings: for AUCtotal / Cmax: n = 6
Experimental: The parent compound IVa has been studied in human clinical trials. The compound was dosed in healthy human volunteers.
It is also readily apparent from the oral AUCs, that increases in drug exposure increased much more slowly and less than proportionally with dose. […] Between 200-800 mg dose range the increases in systemic exposure is dose-related although less than dose-proportional, while such exposure is dose independent above dose of 800 mg.
Dosing with a solution increased Compound IVa exposure.
The AUCs after a fed treatment were approximately 2.5 and 4.7 fold for 800 and 1800 mg doses, respectively, of those of the fasted treatment.
For the 800 mg capsule with food, the average plasma concentration is 1001 and 218 ng/mL at 8 and 12 hours post dose, respectively. The results supported a ql2 h or q8 h dosing regimen for a targeted Cmin value of at least 200 ng/mL after multiple doses. This value was selected based on preclinical data.

[2] = Cytotoxicity assay (XTT dye reduction) in MT-2 cells; type: cell-based; settings: human, six days
Experimental: Cytotoxicity assays were conducted with the same MT-2 cells, using methodology well known in the art. […] 50 μl of XTT reagent (1 mg/ml 2,3-bis[2-methoxy-4-nitro-5-sulfophenyl]-2H-tetrazolium-5-carboxanilide, 10 μg/ml phenazine methosulfate dissolved in phosphate buffered saline) was added to each well and incubated for 3 hours. Color formation by actively respiring cells was quantitated in a plate reader at 450 nm, and used to determine a CC50.

[3] = rat
Experimental: (§1) The stability of Iab was studied in fresh blood and serum from rat, dog, monkey and human (n=2). The blood was collected in vacutainers containing K2EDTA (Becton Dickinson, Franklin Lakes, N.J.). The serum was collected in vacutainers containing no anticoagulant. Iab was incubated at a starting concentration of approximately 10 μM for 60-90 min at 37° C. Serial samples were taken at the pre-determined times. Aliquots of blood samples (200 μL) were first mixed with 100 μL of water followed by 400 μL of acetonitrile. The serum samples (50 μL) were added into microtainers containing K2EDTA (Becton Dickinson, Franklin Lakes, N.J.) followed by the addition of 100 μL of acetonitrile. The supernatant was analyzed for both Iab and IVa by LC/MS/MS. The stability of Ibb was studied in fresh blood and serum from rat, dog, monkey and human (n=2). The blood was collected in vacutainers containing K2EDTA (Becton Dickinson, Franklin Lakes, N.J.). The serum was collected in vacutainers containing no anticoagulant. Ibb was incubated at a starting concentration of approximately 15 μM for 90 min at 37° C. Serial samples were taken at the pre-determined times. Aliquots of blood samples (200 μL) were first mixed with 100 μL of water followed by 400 μL of acetonitrile. The serum samples (50 μL) were added into microtainers containing K2EDTA (Becton Dickinson, Franklin Lakes, N.J.) followed by the addition of 100 μL of acetonitrile. […] The stability of Icb was studied in fresh blood and serum from rat, dog, monkey and human (n=2). The blood was collected in vacutainers containing K2EDTA (Becton Dickinson, Franklin Lakes, N.J.). The serum was collected in vacutainers containing no anticoagulant. Icb was incubated at a starting concentration of approximately 10 μM for 90 min at 37° C. Serial samples were taken at the pre-determined times. Aliquots of blood samples (200 μL) were first mixed with 100 μL of water followed by 400 μL of acetonitrile. The serum samples (50 μL) were added into microtainers containing K2EDTA (Becton Dickinson, Franklin Lakes, N.J.) followed by the addition of 100 μL of acetonitrile.

[4] = dog
Experimental: as §1

[5] = monkey
Experimental: as §1

[6] = human
Experimental: as §1

[7] = pH 7.5
Experimental: The stability of Iab was also evaluated, as described above, in Tris-HCl buffer (0.1 M, pH 7.5). The stability of Ibb was also evaluated, as described above, in Tris-HCl buffer (0.1 M, pH 7.5). The stability of Icb was also evaluated, as described above, in Tris-HCl buffer (0.1 M, pH 7.5).

[8] = monkey, 10 μM
[9] = 1800 mg capsule, high fat meal vs fasted
[10] = fed (high fat meal), dose ratio 1:2.3 (800 mg vs. 1800 mg)

COc1ncc(OC)c2c(C(=O)C(=O)N3CCN(C(=O)c4ccccc4)CC3)c[nH]c12 [IVa, N-(benzoyl)-N′-[(4,7-dimethoxy-6-azaindol-3-yl)-oxoacetyl]piperazine]
AUC of the solution relative to the capsule ([1]; 200 mg): ~3 fold
Cmax of the solution relative to the capsule ([1]; 200 mg): approximately 8 fold
relative bioavailability (fed vs. fasted) ([1]; 800 mg): 293%
AUCtotal ([1]; 800 mg, Fasting): 22 ± 12 µM·h
AUCtotal ([1]; 800 mg, Fed): 53 ± 10 µM·h
relative bioavailability (fed vs. fasted) ([1]; 1800 mg): 509%
AUC Fed/Fasting Ratio [1, 9]: 4.3
Cmax Fed/Fasting Ratio [1, 9]: 4.5
AUCtotal ([1]; 1800 mg, Fasting): 19 ± 5.8 µM·h
AUCtotal ([1]; 1800 mg, Fed): 82 ± 16 µM·h
ratio of AUC [1, 10]: 1.5
ratio of Cmax [1, 10]: 1.6
bioavailability ([1]; human, plasma, oral, 200 mg, read-out: relative bioavailability of the capsule to the solution formulation): 32%
Cmax ([1]; human, plasma, oral, 800 mg, Fasting): 3.7 ± 1.1 µM
Cmax ([1]; human, plasma, oral, 800 mg, Fed): 9.8 ± 1.3 µM
Cmax ([1]; human, plasma, oral, 1800 mg, Fasting): 3.3 ± 0.84 µM
Cmax ([1]; human, plasma, oral, 1800 mg, Fed): 15 ± 5 µM
concentration at 8 h ([1]; human, plasma, oral, 800 mg capsule with food, 8 hours post dose): 1000 ng/mL
concentration at 12 h ([1]; human, plasma, oral, 800 mg capsule with food, 12 hours post dose): 218 ng/mL
Tmax ([1]; human, plasma, oral, fed, read-out: median Tmax): 4 h
CC50 at 6 days [2]: > 10 µM

COc1cnc(-n2cnc(C)n2)c2c1c(C(=O)C(=O)N1CCN(C(=O)c3ccccc3)CC1)cn2COP(=O)(O)O [Icb, [3-[(4-benzoylpiperazin-1-yl)(oxo)acetyl]-4-methoxy-7-(3-methyl-1H-1,2,4-triazol-1-yl)-1H-pyrrolo[2,3-c]pyridin-1-yl]methyl dihydrogen phosphate, 2-amino-2-(hydroxymethyl)propane-1,3-diol salt (1:1)]
conversion of prodrug to parent in blood containing EDTA [3]: < 2%
Icb ([3]; 0 min): 12 µM
Icb ([3]; 15 min): 11 µM
Icb ([3]; 90 min): 12 µM
conversion of prodrug to parent in blood containing EDTA [4]: < 2%
Icb ([4]; 0 min): 10 µM
Icb ([4]; 15 min): 10 µM
Icb ([4]; 90 min): 11 µM
conversion of prodrug to parent in blood containing EDTA [5]: < 2%
Icb ([5]; 0 min): 12 µM
Icb ([5]; 15 min): 12 µM
Icb ([5]; 90 min): 11 µM
conversion of prodrug to parent in blood containing EDTA [6]: < 2%
Icb ([6]; 0 min, 10 μM): 11 µM
Icb ([6]; 15 min): 11 µM
Icb ([6]; 30 min): 13 µM
Icb ([6]; 45 min, 10 μM): 12 µM
Icb ([6]; 60 min, 10 μM): 11 µM
Icb ([6]; 90 min, 10 μM): 11 µM
Icb ([7]; 0 min, 10 μM): 11 µM
Icb ([7]; 15 min): 11 µM
Icb ([7]; 30 min): 11 µM
Icb ([7]; 45 min, 10 μM): 11 µM
Icb ([7]; 60 min, 10 μM): 10 µM
Icb ([7]; 90 min, 10 μM): 11 µM
stability / conversion of prodrug to parent in Tris-HCl buffer ([7]; 90 min): less than 2%
Icb ([8]; 0 min): 9.3 µM
Icb ([8]; 15 min): 7.1 µM
Icb ([8]; 90 min): 1.1 µM
